Experimental data from US7259250B2, “C-nitroso compounds and use thereof” (Duke University, priority 2000, dated 2007).
One block for each compound: values may come before it.

Key:
[1] = system: rabbit aortic ring (smooth muscle); experiment: Relaxation of rabbit aortic ring (Example II, tension tracings FIGS. 1-10); type: cell-based
Procedure: The ability of various C-nitroso compounds as described below to relax a rabbit aortic ring (smooth muscle) was carried out as described in Stamler, J., et al., PNAS, Vol. 89, 444-448 (1992).
Results shown in FIGS. 1-10 which are tracings of force (tension) in the Y-direction versus time in the X-direction with downward direction indicating relaxation and upward direction indicating constriction. Concentrations of C-nitroso compound applied at time in the X-direction are indicated as 10^−9 (1 nanomolar), 10^−6 (1 micromolar), 10^−3 (1 milimolar), etc. “PE” on the figures means the application of phenylephrine, a constricting agent.

[2] = cited from earlier work
person with angina = experiment: Example IV: patient case, angina with nitrate tolerance; type: in vivo, human
[3] = Water solubility (dissolves in water at least to 1 micromolar); type: physicochemical; settings: water-soluble = dissolves in water at least to 1 micromolar
Description: As used herein, the term “water-soluble” means dissolves in water at least to provide a concentration of 1 micromolar.

[4] = system: person with arthritis, esophageal spasm, coronary artery disease, congestive heart failure, impotence and nightly urinary incontinence; experiment: Example III: patient case, ibuprofen partly given as nitrosoketoibuprofen; type: in vivo, human
[5] = compound alone, at micromolar concentration(s)

Compound: C-nitrosophenol
relaxation activity (in words) [1, 5]: no activity

Compound: CC(C)C(=O)c1ccc(C(C)C(=O)O)cc1 (centres unmarked) [2-(4′-isobutyrylphenyl)propionic acid]
carbon acid pKa ([2]; of the named substance itself): about 20

Compound: CC(=O)C1(C)CCC2CCCC[C@@H]2ON1O (some centres unmarked) [Compound (135a)]
outcome of angina (person with angina; 20 μg/min continuously, after nitroglycerin stopped): relief of angina

water solubility (in words) [3]: not water soluble
Compound: CC(C)(C)N=O [2-methyl-2-nitrosopropane]
relaxation activity (in words) ([1]; compound alone, at any of the concentrations used, FIG. 10): no relaxation effect activity

Compound: CCC(N=O)(C(C)=O)C(C)=O [3-ethyl-3-nitroso-2,4-pentanedione]
water solubility (in words) [3]: do not meet the definition of water solubility

Compound: CC(C(=O)O)c1ccc(C(=O)C(C)(C)[N+]([O-])=[N+]([O-])C(C)(C)C(=O)c2ccc(C(C)C(=O)O)cc2)cc1 (stereo not drawn) [nitrosoketoibuprofen, dimeric 2-[4′-(α-nitroso)isobutyrylphenyl]propionic acid]
concentration at which relaxation effect is displayed ([1]; compound alone, FIGS. 5 and 6): 10 nM
relaxation activity (in words) ([1]; compound alone, at concentration higher than 10 nanomolar, FIG. 6): not much more activity
relaxation activity (in words) ([1]; in conjunction with 100 μM glutathione, FIG. 7): no activity
activity (in words) ([1]; without glutathione, at nanomolar concentrations): therapeutically active
outcome of symptoms ([4]; ibuprofen 400 mg three times a day with 0.1% by weight of the drug as the dimeric nitrosoketoibuprofen): all symptoms are relieved

Compound: CC(C)(N=O)C(=O)CCC(=O)Oc1ccccc1C(=O)O [Compound (129a)]
concentration at which relaxation effect is shown ([1]; compound alone, FIG. 1): 10 µM

Compound: CC(C)Cc1ccc(C(C)C(=O)O)cc1 (centres unmarked) [ibuprofen]
adverse effect ([4]; ibuprofen 400 mg, three times a day): gastrointestinal upset

water solubility (in words) [3]: not water soluble
Compound: CC(=O)C(C)(N=O)C(C)=O [3-methyl-3-nitroso-2,4-petanedione, 3-methyl-3-nitroso-2,4-pentanedione]
concentration at which relaxation effect is displayed ([1]; compound alone): greater than 10 micromolar
concentration at which further relaxation effect is displayed ([1]; compound alone, FIG. 9): greater than 100 micromolar
water solubility (in words) ([3]; listed as 3-methyl-3-nitroso-2,4-pentanedione): do not meet the definition of water solubility
pKa of the carbon acid from which the C-nitroso compound is obtained ([2]; pKa of the parent carbon acid, not of the C-nitroso compound): less than 10

Compound: O=[N+]([O-])OCC(CO[N+](=O)[O-])O[N+](=O)[O-] [nitroglycerin]
tolerance development (person with angina; angina treated with nitroglycerin): nitrate tolerance

Compound: O=Nc1ccccc1 [C-nitrosobenzene]
relaxation activity (in words) [1, 5]: no activity
